# Assay results taken from ChEMBL document CHEMBL1201862, “PubChem BioAssay data set” (2004).
# The source made the active and inactive calls.
# How the values were obtained:
# [1] = molecular target: Peroxisome proliferator-activated receptor gamma/Nuclear receptor coactivator 3 (Homo sapiens, UniProt P37231); format: functional;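 note: agonist potency for raising coactivator recruitment to the receptor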
# [2] = molecular target: Peroxisome proliferator-activated receptor gamma/Nuclear receptor coactivator 1 (Homo sapiens, UniProt P37231); format: functional;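 note: agonist potency as compounds enhance coactivator SRC-1 recruitment to PPARgamma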
# [3] = molecular target: Peroxisome proliferator-activated receptor gamma/Nuclear receptor coactivator 2 (Homo sapiens, UniProt P37231); format: functional;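 note: agonist potency for raising coactivator recruitment to the receptor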
# [4] = molecular target: T1, Microphthalmia-associated transcription factor (Homo sapiens, UniProt O75030); test: TRPM1 promoter luciferase signal decrease, dose response, MITF inhibitor project, cell-based, SK-MEL-5, cherry-picked, set 3 (AID 493073); format: functional
# T1 sequence (O75030 whole entry): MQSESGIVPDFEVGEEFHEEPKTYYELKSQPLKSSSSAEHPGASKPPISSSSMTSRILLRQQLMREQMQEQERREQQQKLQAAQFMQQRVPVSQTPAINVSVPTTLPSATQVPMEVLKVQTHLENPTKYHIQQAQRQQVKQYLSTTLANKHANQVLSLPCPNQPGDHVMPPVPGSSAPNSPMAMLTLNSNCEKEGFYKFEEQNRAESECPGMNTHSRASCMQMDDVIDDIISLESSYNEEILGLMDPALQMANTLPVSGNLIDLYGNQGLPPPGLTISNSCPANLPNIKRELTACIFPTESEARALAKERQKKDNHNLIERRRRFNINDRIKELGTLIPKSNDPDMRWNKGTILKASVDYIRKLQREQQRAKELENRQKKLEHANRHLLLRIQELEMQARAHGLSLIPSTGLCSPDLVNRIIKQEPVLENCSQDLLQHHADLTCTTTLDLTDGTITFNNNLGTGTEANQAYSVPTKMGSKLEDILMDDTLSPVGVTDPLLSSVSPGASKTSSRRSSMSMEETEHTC
# [5] = Shn3 3'UTR reporter inhibitors, dose response, cell-based, Clone20 osteoblasts, firefly luciferase, cherry-picked (AID 624132); format: functional;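 note: firefly luciferase luminescence from reporter carrying the Shn3 3'UTR in osteoblasts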
# [6] = HepG2 cell cytotoxicity, dose response, cytotoxicity control for Shn3 inhibitor project, CellTiter-Glo, cherry-picked (AID 624134); format: functional, cell-based
# [7] = control 3'UTR Renilla luciferase suppression, dose response, counter-screen for Shn3 inhibitor project, cell-based, Clone20-Shn3RL, cherry-picked (AID 624133); format: functional
# [8] = molecular target: Induced myeloid leukemia cell differentiation protein Mcl-1 (Homo sapiens, UniProt Q07820); format: functional
# [9] = molecular target: T2, Voltage-gated N-type calcium channel alpha-1B subunit/Amyloid beta A4 precursor protein-binding family A member 1 (Homo sapiens, UniProt Q00975+Q02410); format: protein assay
# Streptococcus = test: Group A Streptococcus viability loss, dose response, counter-screen for streptokinase expression inhibitor project, luminescence, BacTiterGlo (AID 1915); format: functional, organism-based;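 note: potency for reduction of bacterial viability or growth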
# Streptokinase A = molecular target: T3, Streptokinase A (Streptococcus pyogenes serotype M1, UniProt P10520); test: S. pyogenes streptokinase expression inhibitors, potency, dose response, plasminogen activation absorbance, OD405 (AID 1914); format: functional, Streptococcus pyogenes M1 GAS;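 note: secreted streptokinase activity via plasminogen activation per viability signal from cell pellet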
# T3 sequence (P10520 whole entry): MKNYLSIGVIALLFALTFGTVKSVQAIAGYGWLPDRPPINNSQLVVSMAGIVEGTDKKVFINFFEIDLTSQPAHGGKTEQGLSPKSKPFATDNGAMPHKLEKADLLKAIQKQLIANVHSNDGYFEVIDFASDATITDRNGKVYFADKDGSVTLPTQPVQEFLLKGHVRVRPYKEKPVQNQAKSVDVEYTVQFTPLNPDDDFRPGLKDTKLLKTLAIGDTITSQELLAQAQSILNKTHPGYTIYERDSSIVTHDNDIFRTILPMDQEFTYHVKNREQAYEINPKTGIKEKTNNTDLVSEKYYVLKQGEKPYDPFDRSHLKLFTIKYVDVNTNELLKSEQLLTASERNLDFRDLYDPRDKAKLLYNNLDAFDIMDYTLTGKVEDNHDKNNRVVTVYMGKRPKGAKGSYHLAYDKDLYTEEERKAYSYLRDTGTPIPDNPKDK
# [10] = molecular target: T2, Voltage-gated N-type calcium channel alpha-1B subunit/Amyloid beta A4 precursor protein-binding family A member 1; format: protein assay; remark: listed apart in the source
# Aminopeptidase N = molecular target: T4, Aminopeptidase N (Plasmodium falciparum FcB1/Columbia, UniProt O96935); test: P. falciparum M1AAP inhibitors, biochemical, fluorogenic H-Leu-NHMec substrate, 1536-well (AID 1445); parameters: species or system Plasmodium falciparum 3D7, 3D7
# T4 sequence (O96935 whole entry): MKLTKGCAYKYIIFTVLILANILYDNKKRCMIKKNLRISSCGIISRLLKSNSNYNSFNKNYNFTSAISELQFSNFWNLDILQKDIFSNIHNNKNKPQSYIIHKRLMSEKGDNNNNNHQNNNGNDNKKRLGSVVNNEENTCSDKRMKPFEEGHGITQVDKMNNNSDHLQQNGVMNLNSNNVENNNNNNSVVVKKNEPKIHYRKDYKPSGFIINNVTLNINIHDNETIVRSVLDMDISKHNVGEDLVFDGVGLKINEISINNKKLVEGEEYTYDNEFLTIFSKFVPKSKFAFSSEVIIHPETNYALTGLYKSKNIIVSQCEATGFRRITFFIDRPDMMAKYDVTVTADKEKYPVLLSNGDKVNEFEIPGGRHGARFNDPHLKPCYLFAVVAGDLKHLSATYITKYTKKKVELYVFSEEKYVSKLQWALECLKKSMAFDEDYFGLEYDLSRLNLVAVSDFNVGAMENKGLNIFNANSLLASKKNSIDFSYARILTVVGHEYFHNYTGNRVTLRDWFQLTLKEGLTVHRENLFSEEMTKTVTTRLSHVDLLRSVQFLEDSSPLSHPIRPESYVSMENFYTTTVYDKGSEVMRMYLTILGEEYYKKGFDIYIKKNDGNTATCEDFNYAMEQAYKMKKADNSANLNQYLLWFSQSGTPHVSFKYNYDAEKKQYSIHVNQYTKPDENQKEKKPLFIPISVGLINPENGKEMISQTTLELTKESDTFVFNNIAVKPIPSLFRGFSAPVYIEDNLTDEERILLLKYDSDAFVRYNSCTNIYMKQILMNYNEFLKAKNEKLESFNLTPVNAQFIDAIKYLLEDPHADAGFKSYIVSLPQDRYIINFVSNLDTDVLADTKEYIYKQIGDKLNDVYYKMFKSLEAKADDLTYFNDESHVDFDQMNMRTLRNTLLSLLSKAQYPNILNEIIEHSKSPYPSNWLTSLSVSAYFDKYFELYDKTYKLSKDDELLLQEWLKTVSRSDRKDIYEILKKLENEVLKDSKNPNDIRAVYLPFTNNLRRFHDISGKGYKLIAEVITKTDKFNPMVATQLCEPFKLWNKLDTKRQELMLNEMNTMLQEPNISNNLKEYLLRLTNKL
# [11] = test system: Streptococcus sp. 'group A'; test: growth inhibition of control SK(-) GAS strain, dose response, counter-screen for streptokinase expression inhibitor project, luminescence, kanamycin, BacTiterGlo, confirmation (AID 1900); format: functional, organism-based
# H4 = test: Luminescence Cell-Based Dose Response HTS to Identify Activators of 5'UTR Stem-Loop Driven Prion Protein mRNA Translation in H4 Neuroglioblastoma Cells. [Related pubchem assays: 1829 (Project Summary), 1814 (Primary HTS)]; format: functional; settings: Homo sapiens
# [12] = Luminescence Cell-Based Dose Response HTS to Identify Activators of Luciferase Translation or Activity in H4 […] Cells. [Related pubchem assays: 1829 (Project Summary), 1814 (Primary HTS)]; format: functional
# [13] = Luminescence Cell-Based Dose Confirmation HTS to Identify Activators of 5'UTR Stem-Loop Driven Alpha-Synuclein mRNA Translation in H4 Neuroglioblastoma Cells. [Related pubchem assays: 1829 (Project Summary), 1814 (Primary HTS)]; format: functional
# [14] = molecular target: T5, Corticotropin-releasing factor receptor 2/Corticotropin-releasing factor-binding protein (Homo sapiens, UniProt P24387+Q13324); test: activators of CRF receptor 2 with binding protein – uHTS hits, confirmation (AID 602473); format: functional; settings: read-out: EC50_Mean
# T5 sequence (Q13324 whole entry): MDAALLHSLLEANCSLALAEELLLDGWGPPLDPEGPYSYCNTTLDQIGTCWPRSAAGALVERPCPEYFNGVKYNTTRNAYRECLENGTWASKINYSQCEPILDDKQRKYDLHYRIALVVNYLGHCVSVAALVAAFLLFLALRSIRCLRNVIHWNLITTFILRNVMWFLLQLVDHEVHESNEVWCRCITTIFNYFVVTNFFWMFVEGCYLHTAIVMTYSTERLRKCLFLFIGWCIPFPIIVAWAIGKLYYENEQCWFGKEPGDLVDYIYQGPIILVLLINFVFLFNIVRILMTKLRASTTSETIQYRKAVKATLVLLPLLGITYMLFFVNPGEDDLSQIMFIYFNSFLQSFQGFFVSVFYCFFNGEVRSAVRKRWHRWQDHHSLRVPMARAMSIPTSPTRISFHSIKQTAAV
# T5 sequence (P24387 whole entry): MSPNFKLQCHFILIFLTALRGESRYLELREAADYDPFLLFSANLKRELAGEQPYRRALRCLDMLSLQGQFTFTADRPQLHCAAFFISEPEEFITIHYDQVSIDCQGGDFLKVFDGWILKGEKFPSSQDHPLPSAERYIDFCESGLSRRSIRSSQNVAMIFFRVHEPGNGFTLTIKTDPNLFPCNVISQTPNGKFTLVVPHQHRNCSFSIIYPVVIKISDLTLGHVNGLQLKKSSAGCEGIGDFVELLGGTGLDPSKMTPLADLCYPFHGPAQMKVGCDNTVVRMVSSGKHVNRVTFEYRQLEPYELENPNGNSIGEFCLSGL
# Prothrombin = Prothrombin (Homo sapiens, UniProt P00734); test: Thrombin 1536 HTS Dose Response Confirmation. [Related pubchem assays: 1046 (Thrombin 1536 HTS; hits were confirmed in this assay)]; format: functional
# Sequence of Peroxisome proliferator-activated receptor gamma/Nuclear receptor coactivator 1 (P37231 whole entry): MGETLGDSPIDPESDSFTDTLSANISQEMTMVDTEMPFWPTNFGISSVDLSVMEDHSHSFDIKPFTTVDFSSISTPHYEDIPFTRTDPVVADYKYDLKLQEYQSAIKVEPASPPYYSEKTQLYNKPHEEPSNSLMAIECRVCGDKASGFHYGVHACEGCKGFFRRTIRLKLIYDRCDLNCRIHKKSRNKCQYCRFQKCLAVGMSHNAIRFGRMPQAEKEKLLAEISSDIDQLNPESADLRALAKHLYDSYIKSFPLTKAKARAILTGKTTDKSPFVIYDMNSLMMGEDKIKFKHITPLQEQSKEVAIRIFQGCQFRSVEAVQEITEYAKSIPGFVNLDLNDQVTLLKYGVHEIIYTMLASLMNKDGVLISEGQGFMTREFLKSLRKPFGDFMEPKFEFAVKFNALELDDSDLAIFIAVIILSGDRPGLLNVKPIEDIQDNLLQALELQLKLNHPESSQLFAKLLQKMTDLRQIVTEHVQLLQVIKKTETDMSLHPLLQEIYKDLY
# Sequence of Peroxisome proliferator-activated receptor gamma/Nuclear receptor coactivator 1 (Q15788 whole entry, further chain): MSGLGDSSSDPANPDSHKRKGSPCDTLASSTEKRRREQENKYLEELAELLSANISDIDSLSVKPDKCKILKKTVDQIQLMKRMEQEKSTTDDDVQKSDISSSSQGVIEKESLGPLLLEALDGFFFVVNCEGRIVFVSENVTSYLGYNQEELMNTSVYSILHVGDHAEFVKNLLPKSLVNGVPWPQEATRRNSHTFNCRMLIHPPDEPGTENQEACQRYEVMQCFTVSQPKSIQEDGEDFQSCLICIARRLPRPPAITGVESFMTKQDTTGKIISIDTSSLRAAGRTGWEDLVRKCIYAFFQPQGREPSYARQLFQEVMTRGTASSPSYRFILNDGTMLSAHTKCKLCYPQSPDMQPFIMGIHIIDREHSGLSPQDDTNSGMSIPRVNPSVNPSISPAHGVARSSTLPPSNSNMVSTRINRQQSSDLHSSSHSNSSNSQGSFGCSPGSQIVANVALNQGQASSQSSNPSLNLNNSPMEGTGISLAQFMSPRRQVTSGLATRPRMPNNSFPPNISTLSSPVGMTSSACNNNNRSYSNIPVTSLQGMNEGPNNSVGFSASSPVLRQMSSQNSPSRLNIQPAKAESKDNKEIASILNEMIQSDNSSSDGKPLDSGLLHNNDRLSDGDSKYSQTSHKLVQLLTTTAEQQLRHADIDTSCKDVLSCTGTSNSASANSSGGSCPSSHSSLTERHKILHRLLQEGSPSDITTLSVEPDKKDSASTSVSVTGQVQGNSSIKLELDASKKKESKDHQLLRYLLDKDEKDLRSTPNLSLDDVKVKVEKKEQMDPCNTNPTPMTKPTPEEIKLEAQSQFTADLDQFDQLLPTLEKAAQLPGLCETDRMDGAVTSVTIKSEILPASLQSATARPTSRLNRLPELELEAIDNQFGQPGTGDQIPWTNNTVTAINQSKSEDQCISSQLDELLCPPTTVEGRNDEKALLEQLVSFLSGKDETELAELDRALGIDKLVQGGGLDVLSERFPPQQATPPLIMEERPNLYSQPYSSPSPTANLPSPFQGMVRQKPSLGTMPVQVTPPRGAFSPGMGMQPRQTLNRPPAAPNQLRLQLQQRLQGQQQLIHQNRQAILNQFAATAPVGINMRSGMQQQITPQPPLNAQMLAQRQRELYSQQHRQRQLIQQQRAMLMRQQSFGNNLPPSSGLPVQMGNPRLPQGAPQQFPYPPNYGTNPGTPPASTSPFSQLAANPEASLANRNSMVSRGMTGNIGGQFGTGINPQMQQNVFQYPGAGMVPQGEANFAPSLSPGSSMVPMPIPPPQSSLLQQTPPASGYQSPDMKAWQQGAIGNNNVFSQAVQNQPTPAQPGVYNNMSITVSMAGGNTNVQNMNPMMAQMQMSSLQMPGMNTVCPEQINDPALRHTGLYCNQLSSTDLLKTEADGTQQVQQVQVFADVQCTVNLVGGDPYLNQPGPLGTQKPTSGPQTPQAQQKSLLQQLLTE
# Sequence of Peroxisome proliferator-activated receptor gamma/Nuclear receptor coactivator 3 (P37231 whole entry): as the sequence (P37231 whole entry) above
# Sequence of Peroxisome proliferator-activated receptor gamma/Nuclear receptor coactivator 3 (Q9Y6Q9 whole entry, further chain): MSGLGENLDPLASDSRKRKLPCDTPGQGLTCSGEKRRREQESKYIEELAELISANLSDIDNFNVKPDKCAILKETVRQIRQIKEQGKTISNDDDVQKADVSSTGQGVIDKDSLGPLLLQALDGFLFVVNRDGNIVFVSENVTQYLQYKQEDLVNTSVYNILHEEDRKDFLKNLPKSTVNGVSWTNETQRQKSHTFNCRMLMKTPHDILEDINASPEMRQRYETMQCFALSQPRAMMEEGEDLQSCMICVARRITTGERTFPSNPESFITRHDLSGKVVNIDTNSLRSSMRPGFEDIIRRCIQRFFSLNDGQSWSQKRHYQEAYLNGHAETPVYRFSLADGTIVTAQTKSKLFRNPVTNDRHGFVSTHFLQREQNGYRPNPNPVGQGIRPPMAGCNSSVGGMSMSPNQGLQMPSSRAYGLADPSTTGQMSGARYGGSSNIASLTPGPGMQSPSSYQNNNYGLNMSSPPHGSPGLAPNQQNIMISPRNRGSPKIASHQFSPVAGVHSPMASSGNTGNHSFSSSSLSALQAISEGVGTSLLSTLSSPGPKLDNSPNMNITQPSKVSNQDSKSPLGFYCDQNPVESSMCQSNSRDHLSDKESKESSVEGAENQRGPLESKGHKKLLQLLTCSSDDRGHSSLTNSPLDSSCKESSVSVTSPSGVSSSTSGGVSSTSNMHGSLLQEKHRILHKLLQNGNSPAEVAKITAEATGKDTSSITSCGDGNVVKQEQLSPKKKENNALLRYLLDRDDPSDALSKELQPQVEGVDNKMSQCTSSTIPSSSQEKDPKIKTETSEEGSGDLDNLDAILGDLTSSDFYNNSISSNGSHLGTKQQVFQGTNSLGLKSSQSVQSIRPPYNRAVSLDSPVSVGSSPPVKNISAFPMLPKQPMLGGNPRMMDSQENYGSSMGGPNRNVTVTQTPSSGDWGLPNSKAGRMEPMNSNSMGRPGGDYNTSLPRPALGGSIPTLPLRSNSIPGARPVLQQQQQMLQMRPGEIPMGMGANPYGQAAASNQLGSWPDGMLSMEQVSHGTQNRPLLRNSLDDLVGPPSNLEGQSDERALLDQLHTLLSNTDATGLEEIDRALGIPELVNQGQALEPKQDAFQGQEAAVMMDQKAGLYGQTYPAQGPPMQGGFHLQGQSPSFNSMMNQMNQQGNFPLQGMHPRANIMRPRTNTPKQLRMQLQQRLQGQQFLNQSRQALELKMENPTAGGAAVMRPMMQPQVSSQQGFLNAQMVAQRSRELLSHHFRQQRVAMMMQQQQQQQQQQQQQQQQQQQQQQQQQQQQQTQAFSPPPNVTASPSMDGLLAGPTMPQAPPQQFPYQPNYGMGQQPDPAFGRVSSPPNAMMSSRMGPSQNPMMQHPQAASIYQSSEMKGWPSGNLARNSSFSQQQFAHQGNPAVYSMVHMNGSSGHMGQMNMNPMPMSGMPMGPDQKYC
# Sequence of Induced myeloid leukemia cell differentiation protein Mcl-1 (Q07820 whole entry): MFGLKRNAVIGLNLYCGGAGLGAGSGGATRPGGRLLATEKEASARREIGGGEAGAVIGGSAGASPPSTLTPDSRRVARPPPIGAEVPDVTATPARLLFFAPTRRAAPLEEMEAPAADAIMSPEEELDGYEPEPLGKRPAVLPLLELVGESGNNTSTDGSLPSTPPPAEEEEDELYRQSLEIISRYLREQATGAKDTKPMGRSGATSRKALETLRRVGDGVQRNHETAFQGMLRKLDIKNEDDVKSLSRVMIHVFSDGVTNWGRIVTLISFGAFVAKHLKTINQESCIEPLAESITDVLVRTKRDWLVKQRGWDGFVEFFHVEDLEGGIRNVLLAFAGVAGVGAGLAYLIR
structure (smiles),measurement,setting,value
O=c1c2ccccc2nc(-c2ccccc2)n1CCCN1CCOCC1,EC50,[1],> 79.4 µM (not active)
same,EC50,[2],> 79.4 µM (not active)
same,EC50,[3],> 79.4 µM (not active)
Cn1cccc1C(=O)NC(=O)COC(=O)c1ccc(S(C)(=O)=O)c([N+](=O)[O-])c1,AC50,[4],9.23 µM (active)
same,AC50,[5],15.1 µM (active)
same,AC50,[6],26 µM (active)
same,AC50,[7],13.6 µM (active)
C=CCn1c(Cc2cccs2)nnc1SCC(=O)c1ccc(F)cc1,EC50,[1],> 79.4 µM (not active)
same,EC50,[2],> 79.4 µM (not active)
same,EC50,[3],> 79.4 µM (not active)
COc1ccc(C(=O)Nc2cccc(/C=C(\CCC(=O)O)c3nc4ccccc4s3)c2)cc1,IC50,[8],4.32 µM (active)
same,IC50,[9],4.28 µM (active)
same,EC50,Streptococcus,22.9 µM (active)
same,EC50,Streptokinase A,> 50 µM (not active)
same,IC50,[10],> 50 µM (inactive)
same,IC50,Aminopeptidase N,21.8 µM (active)
same,EC50,[11],7.83 µM (active)
CN1CCN(NS(=O)(=O)c2cccs2)CC1,IC50,[9],51.3 µM (active)
same,IC50,[10],> 50 µM (inactive)
Cn1c(=O)c(C(=O)NC2CCCCCCC2)c(O)c2ccccc21,EC50,[1],> 79.4 µM (not active)
same,EC50,[2],> 79.4 µM (not active)
same,EC50,[3],69.1 µM (not active)
same,EC50,H4,> 120 µM (not active)
same,EC50,[12],22.8 µM (active)
same,EC50,[13],15.6 µM (active)
Cc1ccc(C2C=C(c3ccccc3)Nc3nc(N4C(=O)CCC4=O)nn32)cc1 (configuration not stated),EC50,[14],> 53 µM (inactive)
same,IC50,Prothrombin,10.9 µM (active)
